Measured values published in PMC9138683, “Decoding the Role of Melatonin Structure on Plasmodium falciparum Human Malaria Parasites Synchronization Using 2-Sulfenylindoles Derivatives” (Biomolecules, 2022).
Entries after “also recorded” stand apart in the source; their conditions may differ. Where two headings read alike, the source gives them in different places.

Tests used:
[1] = test system: Plasmodium falciparum Dd2 (chloroquine-resistant); assay: In vitro drug susceptibility assay, Dd2 strain (flow cytometry, SYBR Green I / MitoTracker Deep Red); assay type: cell-based; conditions: read-out: IC50 ± SD PfDd2
Experimental: (§1) The cultures were maintained under an atmosphere of 5% CO2, 5% O2, and 90% N2. Fresh complete medium was provided daily, and rapid-stained (Panotico) blood smears were examined.
(§2) To evaluate the effects of synthetic compounds on the intraerythrocytic development of P. falciparum, we analyzed parasitemia by flow cytometry with 0.3% initial parasitemia and 1% hematocrit in the assay. Plates were incubated with the compounds at concentrations ranging from 0.10 to 100 µM for 72 h. Dual staining with SYBR Green I (SG-I) (Invitrogen, Waltham, MA, USA) and MitoTracker Deep Red (MT-Red) (Invitrogen) were used to label nucleic acids and mitochondria, respectively. Approximately 10,000 cells were counted by an Accuri C6 (Becton Dickinson, San Jose, CA, USA) and analyzed by FlowJo 5 software. Parasitemia was determined from the analysis of dot plots (side scatter versus fluorescence).
(§3) We determined the susceptibility of P. falciparum to the indole compounds and investigated whether CQR parasites responded differently to the compounds. […] We determined the IC50 values for each compound by analyzing viable and non-viable parasites after compound treatment, represented in dot plots (Figure 1H).

[2] = test system: Plasmodium falciparum 3D7 (chloroquine-sensitive); assay: In vitro drug susceptibility assay, 3D7 strain (flow cytometry, SYBR Green I / MitoTracker Deep Red); assay type: cell-based; conditions: read-out: IC50 ± SD Pf3D7
Experimental: as §1, §2, §3

Cytotoxicity assay (MTT) = assay type: cell-based, human; conditions: human, HEK293T (HEK293) cells, 0.10-100 µM, read-out: CC50 ± SD HEK293
Experimental: HEK293T (human embryonic kidney) cells were cultured in 75 cm^2 vented tissue culture flasks (Greiner Bio-One, Frickenhausen, Germany) at 37 °C in a humidified atmosphere containing 5% CO2 in Dulbecco’s modified […] (Gibco) supplemented with 10% (v/v) fetal bovine serum (Gibco), 100 U/mL penicillin, and 100 μg/mL streptomycin (Sigma). Cytotoxicity was evaluated with the 4,5-dimethylthiazol-2-yl-2,5-diphenyltetrazolium bromide (MTT) cell proliferation assay. Briefly, 10^4 cells/well were seeded in flat-bottom 96-well plates in complete DMEM medium for 24 h, followed by incubation with different concentrations of each compound (0.10–100 µM) for 72 h. DMSO (0.13%) and digitonin were used as the negative and positive controls, respectively. The concentrations of DMSO chosen as control were the concentration present in the tested compounds (from 0.0001% to 0.12%, two-fold dilution). After 72 h, cells were then incubated with the MTT reagent for 3 h, and absorbance was measured at 570 nm using a FlexStation® 3 Multi-Mode Microplate Reader (Molecular Devices, Sunnyvale, CA, USA). Moreover, we calculated the selectivity indexes (SI) to understand whether the compounds were more toxic to parasites than cells, or vice versa, according to the ratio of the CC50 value to the IC50 value for each compound.
We further assessed the toxicity of 2-sulfenylindole compounds against HEK293 cells using the MTT assay with different concentrations of the compounds for 72 h. Table 1 presents all the toxicity data and summarizes the IC50 values of the compounds evaluated in this study for Dd2 and 3D7 strains.

[3] = test system: P. falciparum 3D7 parasites; assay: Effects of indole derivatives (500 nM) on parasitemia; assay type: cell-based, Plasmodium falciparum; conditions: for decrease in parasitemia / increase in parasitemia: 500 nM compound; for decrease in parasitemia / activity at 0.5 µM / increase in parasitemia: 3D7, 48 h; for decrease in parasitemia: compared to DMSO control; for activity at 0.5 µM: Plasmodium falciparum, normalized to DMSO control, read-out: Parasitemia (%) Treatment with compound (500nM); for effect on parasitemia (in words): 500 nM compound alone, 3D7 asynchronous, 48 h; for increase in parasitemia: compared to DMSO control (100.6%)
Experimental: (§4) To evaluate the role of the compounds in parasitemia, 1% 3D7 parasites in 2% hematocrit were incubated for 48 h with 500 nM of the 2-sulfenylindole derivatives. Melatonin (100 nM) was used as a positive control, and DMSO (0.0013% v/v) was used as a negative control. The concentration of DMSO chosen as control was the concentration present in the tested compounds at 500 nM. The activity of the compounds was measured by SG-I and MT-Red staining. The data obtained were normalized to those of the control (DMSO). Additionally, to test the ability of the compounds to affect melatonin activity in parasitemia, 3D7 parasites were incubated with 500 nM indole compounds along with 100 nM melatonin for 48 h.
After incubation, the final parasitemia was determined using flow cytometry.

[4] = test system: P. falciparum 3D7 parasites; assay: Effect of 2-sulfenylindoles in combination with 100 nM melatonin on parasitemia; assay type: cell-based, Plasmodium falciparum; conditions: 3D7, 48 h; for Parasitemia (%) Treatment with compound (500nM) + Melatonin (100nM): normalized to DMSO control
Experimental: as §4
Following the assumption that compounds resembling melatonin structure might interact through the melatonin signaling pathways, we evaluated the effect of the compounds on melatonin action on parasitemia. Our next step was to study the combination of 2-sulfenylindoles with melatonin in asynchronous 3D7 by incubating parasites simultaneously with 100 nM melatonin and 500 nM of each compound.

P. falciparum 3D7 strain = assay: Blood-stage development evaluation by microscopy; assay type: cell-based, Plasmodium falciparum; conditions: ring-stage synchronized 3D7, treated at IC50 (30 µM for 20 and 28), monitored every 12 h
Experimental: Ring-stage parasites (10–14 h) at 1% parasitemia in 2% hematocrit were treated with compound 20 and compound 28 at concentrations of 1 and 30 µM in 24-well plates for 48 h. Treatment with chloroquine (20 nM) and DMSO (0.1%) was used as positive and negative controls. Smears were rapid stained (Panotico) every 12 h after treatment (12, 24, 36, 48, and 60 h time points), and we took images of parasites to assess the blood-stage development (Zeiss, Oberkochen, Germany).
During monitoring, parasites continued to develop throughout the cycle in the presence of both compounds. […] To examine its stage specificity, we monitored development every 12 h.
Figure 5 Parasitemia reduction with compound 20 (A) and compound 28 (B) to determine the stage activity. Data are means ± SD. Ring-stage synchronized parasites with sorbitol 5% were treated with chloroquine (20 nM), compound 20 (30 µM), and compound 28 (30 µM). The chosen treatment concentration was the IC50 values obtained for these compounds against the 3D7 parasites. (C) After drug administration, smears of P. falciparum 3D7 strain were taken at 0, 12, 24, 36, 48, and 60 h after drug administration, observing the growth development of treated parasites. * p ≤ 0.05, ** p ≤ 0.01, *** p ≤ 0.001.

[5] = Plasmodium falciparum, DD2, 72 h, asynchronous parasites, 72 h, 0.1-100 µM
[6] = Plasmodium falciparum, 3D7, 72 h, asynchronous parasites, 72 h, 0.1-100 µM
[7] = asynchronous parasites, 72 h, 0.1-100 µM
[8] = 500 nM compound + 100 nM melatonin

Structure (SMILES)	IC50 [1, 5] [µM]	IC50 [2, 6] [µM]	IC50 [1, 7] [µM]	IC50 [2, 7] [µM]	IC50 ([1]; Plasmodium falciparum, DD2, 72 h) [µM]	IC50 ([2]; Plasmodium falciparum, 3D7, 72 h) [µM]	CC50 at 72 h (Cytotoxicity assay (MTT)) [µM]	decrease in parasitemia [3] [%]	activity at 0.5 µM [3] [%]	increase in parasitemia compared to control group ([4]; 500 nM compound + 100 nM melatonin, versus control group (100.7%)) [%]	Parasitemia (%) Treatment with compound (500nM) + Melatonin (100nM) [4] [%]	effect on parasitemia (in words) [3]	increase in parasitemia [3] [%]	effect on melatonin action on parasitemia (in words) [4, 8]	stage-specific effect on blood-stage development (P. falciparum 3D7 strain)
CCN(CC)CCCC(C)Nc1ccnc2cc(Cl)ccc12 (stereo not shown) [Chloroquine, reference compound]					0.199 ± 0.0262	0.0223 ± 0.00417									
COC(=O)Cc1c(Sc2cccc(O)c2)[nH]c2ccccc12 [Compound 7]	55.4 ± 2.96	58.2 ± 2.45					31.6 ± 4.03	4.05	96.5 ± 2.39	22.2	122.9 ± 5.60				
CCSc1[nH]c2ccccc2c1CC(=O)OC [Compound 17]	35.4 ± 1.56	25 ± 2.9					26.5 ± 4.67		98.6 ± 2.95		123.6 ± 3.11	did not affect parasitemia			
COC(=O)Cc1c(SC(C)(C)C)[nH]c2ccccc12 [Compound 16]	48.5 ± 2.88	31.7 ± 5.09					26.5 ± 8.7		112 ± 1.76		127.4 ± 4.10	led to an increase in parasitemia	11.2		
COC(=O)Cc1c(Sc2ncccn2)[nH]c2ccccc12 [Compound 10]	43.6 ± 3.06	54.9 ± 2.25					> 100		101 ± 2.14		130.2 ± 6.02				
COC(=O)Cc1c(SCc2ccccc2)[nH]c2ccccc12 [Compound 14]	37.1 ± 7.66	20.9 ± 2.97					23.7 ± 8.54		97.8 ± 3.41		128.5 ± 4.13				
COC(=O)Cc1c(Sc2ccccc2)[nH]c2ccccc12 [Compound 3]	< 20	< 20	18 ± 1.72	10.6 ± 5.19			15.2 ± 1.36		98.2 ± 2.28		129.8 ± 6.78	no increase was observed		slight increase in parasitemia	reduced the progress from rings to trophozoites; also recorded: affect ring to trophozoite progression
COC(=O)Cc1c(Sc2ccccc2C(=O)O)[nH]c2ccccc12 [Compound 8]	43.3 ± 6.51	37.3 ± 3.58					> 100		102 ± 1.71		133.5 ± 8.06				

Further lines, with some results ahead:

IC50 [1, 5] [µM]	IC50 [2, 6] [µM]	IC50 [1, 7] [µM]	IC50 [2, 7] [µM]	Structure (SMILES)	IC50 ([1]; Plasmodium falciparum, DD2, 72 h) [µM]	IC50 ([2]; Plasmodium falciparum, 3D7, 72 h) [µM]	CC50 at 72 h (Cytotoxicity assay (MTT)) [µM]	decrease in parasitemia [3] [%]	activity at 0.5 µM [3] [%]	increase in parasitemia compared to control group ([4]; 500 nM compound + 100 nM melatonin, versus control group (100.7%)) [%]	Parasitemia (%) Treatment with compound (500nM) + Melatonin (100nM) [4] [%]	effect on parasitemia (in words) [3]	increase in parasitemia [3] [%]	effect on melatonin action on parasitemia (in words) [4, 8]	stage-specific effect on blood-stage development (P. falciparum 3D7 strain)
< 20	< 20	16.9 ± 4.66	19.1 ± 1.78	CCCCCCCCCCCCSc1[nH]c2cc(Cl)ccc2c1CC(=O)OC [Compound 21]			> 100		104.4 ± 1		111.9 ± 2.78	led to an increase in parasitemia	3.8		
45.5 ± 4.84	26.5 ± 4.87			COC(=O)Cc1c(Sc2ccccc2)[nH]c2ccc(OC)cc12 [Compound 25]			13.1 ± 3.74		107 ± 2.46		112.8 ± 2.93	led to an increase in parasitemia	6.6	did not potentiate or block the effect of melatonin on parasitemia	
35.8 ± 4.64	< 20		13.5 ± 2.37	c1ccc(Cc2c(Sc3ccccc3)[nH]c3ccccc23)cc1 [Compound 26]			34.7 ± 8.44	7.94	92.7 ± 4.17		110.4 ± 3.18				reduced the progress from rings to trophozoites; also recorded: affect ring to trophozoite progression
39.9 ± 1.61	27.8 ± 2.03			COC(=O)Cc1c(SCCCCO)[nH]c2ccccc12 [Compound 19]			28.1 ± 5.46		100 ± 1.81		118.5 ± 2.85				
< 20	< 20	15.7 ± 4.87	13.5 ± 3.24	COC(=O)Cc1c(SC23CC4CC(CC(C4)C2)C3)[nH]c2ccccc12 [Compound 18]			16.8 ± 2.63		98 ± 2.61		113.9 ± 2.90				reduced the progress from rings to trophozoites; also recorded: affect ring to trophozoite progression
